Entries after “also recorded” stand apart in the source; their conditions may differ.
Tests used:
Format in all cases: cell-based
[1] = system: human NHIK 3025/MEM cervix carcinoma cells; assay: Rate of protein synthesis ([3H]-valine incorporation) in NHIK 3025 cells; conditions: NHIK 3025/MEM cells, 1 hour treatment with [3H]-valine, compared to prior art compound 15
Source text: Human cells of the established line NHIK 3025, originating from a cervical carcinoma in situ (Nordbye, K. and Oftebro, R., Exp. Cell Res., 58: 458, (1969)), (Oftebro, R. and Nordbye, K., Exp. Cell Res., 58: 459-460, (1969)) were cultivated in medium E2a (Puck et al., J. Exp. Med., 106: 145-165, (1957)) supplemented with 20% human (prepared at the laboratory) and 10% horse serum (Grand Island Biological Co.).
(§1) The cells are routinely grown as monolayers in tissue culture flasks. The cells were kept in continuous exponential growth by frequent reculturing, i.e. every second or third day.
(§2) During reculturing as well as during experiments the cells were kept in a walk-in incubator at 37°C.
(§3) The rate of protein synthesis was calculated as described previously (Rønning et al., J. Cell Physiol., 107: 47-57, (1981)). Briefly, cellular protein was labeled to saturation during a 2-day preincubation with [¹⁴C]-valine of constant specific radioactivity (0.5 Ci/mol) prior to the experiment. This was achieved by using a high concentration of valine so that the dilution of [¹⁴C]- valine by intracellular valine and by proteolytically generated valine will be negligible (Rønning et al., Exp. Cell Res., 123: 63-72, (1979)), thus keeping the specific radioactivity at a constant level. The rate of protein synthesis was calculated from the incorporation of [³H]-valine of constant specific activity. The incorporated measurements were related to the total of [¹⁴C]-radioactivity in protein at the beginning of the respective measurement periods and expressed as the percentage per hr (Rønning et al., J. Cell. Physiol., 107: 47-57, (1981)).
In Figure 1 the rate of protein synthesis (as % of control rate) is shown in relation to the concentration of imine used in the treatment of human NHIK 3025/MEM cervix carcinoma cells cultivated in vitro. The treatment period was for 1 hour during which the cell culture medium contained [³H]-valine in addition to the test compound. […]

[2] = system: non-malignant cell line V79 (Chinese hamster lung cells); assay: Rate of protein synthesis in V79 cells; conditions: Figure 4
Source text: V79 379-A cells were provided by Dr. Laszlo Révész (Karolinska Institutet, Stockholm) in 1976 and have since been cultivated in MEM medium (Hank's salts) supplemented with 15% newborn bovine serum. These cells are a clone of the line V79, isolated from Chinese hamster normal lung tissue and established in culture by Ford and Yerganian (see J. Natl. Cancer Inst. 21, (1958) 393-425).
as §1, §2, §3
In Figure 4 the effect of two preferred imines according to the invention, compounds 3 and 7 , on the rate of protein synthesis in the non-malignant cell line V79 (Chinese hamster lung cells).

[3] = system: murine B16 melanoma cells; assay: Rate of protein synthesis in B16 melanoma cells; conditions: Figure 3, compared to prior art compound 15
Method: as §3
In Figure 3, the effect of two imine compounds, 3 and 7, according to the invention and the effect of the prior art compound 15 on the protein synthesis of murine B16 melanoma cells is shown.

[4] = system: 3T3 cells (derived from mouse embryo); assay: Rate of protein synthesis in 3T3 cells; conditions: Figure 5
Source text: Balb 3T3-A cells were isolated by Aaronsen and Todaro (J. Cell Physiol. 72, (1968)) 41-148) and were provided by Dr. T.Ege (Karolinska Institutet, Stockholm) in 1980 and have since been cultivated in MEM medium (Hank's salts) supplemented with 15% newborn bovine serum.
as §1, §2, §3
In Figure 5 the effect of compounds 3 and 7 on the rate of the protein synthesis of 3T3 cells (derived from mouse embryo) is shown.

[5] = system: human pancreatic carcinoma cell line PANC-1; assay: Rate of protein synthesis and cell inactivation ([14C]-radioactivity) in PANC-1 cells; conditions: for cell inactivating effect at concentrations (decline in [¹⁴C]-radioactivity): decrease in [14C]-radioactivity is a sign of cell death
Method: PANC-1 cells were purchased from the American Type Culture Collection (ATCC) in 1990. These cells were derived from a human adenocarcinoma of ductal origin (Lieber et al, Int. J. Cancer 15, (1975) 741-747).
as §1, §2, §3
In Figures 6a) and b) the human pancreatic carcinoma cell line PANC-1, cultivated in the medium MEM (with new born calf serum), was used .
In Figures 7a) and b) the human pancreatic carcinoma cell line PANC-1, cultivated in the medium E2a (with human and horse serum), was used .

For O=C(O)CCCCCN=Cc1cccc([N+](=O)[O-])c1 [Compound 3, 6-(3-Nitrobenzylidene-Amino)-Hexanoic Acid], the “rate of protein synthesis (as % of control rate)” value (from here on “rate … (as % of control rate)”) ([1]; Figure 1) was “inhibited to a greater degree; also recorded: strongest inhibition on protein synthesis”, the “effect on the rate of protein synthesis” value [2] was “significantly inhibit protein synthesis” and the “effect on the protein synthesis” value [3] was “much stronger protein synthesis inhibiting effect”. For the same compound, the “effect on the rate of the protein synthesis” value [4] was “strong protein synthesis inhibition”.

COC(=O)c1ccc(C=NCCCCCCCCCCC(=O)O)cc1 [Compound 4, 11-(4-Carbomethoxy-benzylidene-Amino) -Undecanoic Acid] was tested, and the “rate … (as % of control rate)” value ([1]; Figure 1) was “inhibited to a greater degree; also recorded: strongest inhibition on protein synthesis”.

For O=[N+]([O-])c1cccc(C=NCCCCO)c1 [Compound 7, 4-(3-Nitrobenzylidene-Amino)-Butan-1-ol], the “rate … (as % of control rate)” value ([1]; Figure 2) was “inhibited to a greater degree; also recorded: strongest inhibition on protein synthesis”, the “effect on the rate of protein synthesis” value [2] was “significantly inhibit protein synthesis; also recorded: slightly more effective than compound 3” and the “effect on the protein synthesis” value [3] was “much stronger protein synthesis inhibiting effect”. The “effect on the rate of the protein synthesis” value [4] was “strong protein synthesis inhibition”.

With [2H]C(=NCCCN(C)C)c1ccccc1 [Compound 14, 1-(Benzylidene-d1-Amino)-3-(Dimethyl-amino)-Propane] the “cell inactivating effect at concentrations (decline in [¹⁴C]-radioactivity)” value ([5]; Figure 6b, PANC-1 in medium MEM) was “above 2 mM” and the “cell inactivating effect at concentrations (decline in [¹⁴C]-radioactivity)” value ([5]; Figure 7b, PANC-1 in medium E2a) was “above 2 mM”.

In the case of [2H]C1(c2ccccc2)OC[C@@H]([C@H]2OC(=O)C(O)=C2O)O1 (stereo partly drawn) [Compound 15, Sodium 5,6-0-Benzylidene-d1-L-Ascorbate, reference compound], the “effect on the rate of protein synthesis” value [2] is reported as “little or no inhibition”, the “protein synthesis inhibiting activity” value ([5]; Figures 6a/6b, PANC-1 in medium MEM (with new born calf serum)) is reported as “little protein synthesis inhibiting activity” and the “protein synthesis inhibiting activity” value ([5]; Figures 7a/7b, PANC-1 in medium E2a (with human and horse serum)) is reported as “little protein synthesis inhibiting activity”. The “effect on the rate of the protein synthesis” value [4] was “little effect”.

Source: EP0609032A1, “Aromatic imine compounds, pharmaceutical composition thereof, useful as protein synthesis inhibitors” (NORSK HYDRO A/S, priority 1993, dated 1994)
